{"source": "patent US20080107625A1", "about": "“Inhibitors of Hepatitis C Virus” (Bristol-Myers Squibb Company, priority 2006, published 2008)", "key": {"[1]": {"system": "HCV replicon (Renilla luciferase reporter) in HUH-7 cells", "experiment": "HCV replicon luciferase reporter assay", "assay_type": "cell-based, HCV strain 1b", "conditions": "Huh-7, 96 h; 4 days", "source_text": "An HCV replicon whole cell system was established as described by Lohmann V, Korner F, Koch J, Herian U, Theilmann L, Bartenschlager R., Science 285(5424): 110-3 (1999). This system enabled us to evaluate the effects of our HCV Protease compounds on HCV RNA replication. Briefly, using the HCV strain 1b sequence described in the Lohmann paper (Assession number: AJ238799), an HCV cDNA was synthesized by Operon Technologies, Inc. (Alameda, Calif.), and the full-length replicon was then assembled in plasmid pGem9zf(+) (Promega, Madison, Wis.) using standard molecular biology techniques. […]\nAs a secondary assay, EC50 determinations from the replicon FRET assay were confirmed in a replicon luciferase reporter assay. […] Following 4 days in a 37° C./5% CO2 incubator, cells were analyzed for Renilla Luciferase activity using the Promega Dual-Glo Luciferase Assay System. […] Plates were read on a Packard TopCount NXT using a luminescence program.\nThe percentage inhibition was calculated using the formula below: • % control=average luciferase signal in experimental wells (+compound) • average luciferase signal in DMSO control wells (−compound)\nThe values were graphed and analyzed using XLfit to obtain the EC50 value."}, "[2]": {"target": "T1, porcine pancreatic elastase (PPE) (Sus scrofa, UniProt P00772)", "T1 construct": "purchased Sigma or EMDbiosciences", "T1 sequence (P00772 27-266)": "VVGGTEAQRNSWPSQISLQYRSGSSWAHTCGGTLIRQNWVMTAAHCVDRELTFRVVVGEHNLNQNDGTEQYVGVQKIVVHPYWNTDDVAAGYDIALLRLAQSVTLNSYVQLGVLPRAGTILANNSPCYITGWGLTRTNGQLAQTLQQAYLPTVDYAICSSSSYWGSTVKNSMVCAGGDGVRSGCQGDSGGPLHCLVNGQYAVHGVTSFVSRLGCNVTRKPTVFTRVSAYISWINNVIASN", "experiment": "Specificity assay, pancreatic elastase", "assay_type": "biochemical", "method": "The specificities of compounds of the present disclosure were determined against a variety of serine proteases: human neutrophil elastase (HNE), porcine pancreatic elastase (PPE) and human pancreatic chymotrypsin and one cysteine protease: human liver cathepsin B. In all cases, a 96-well plate format protocol using colorimetric p-nitroaniline (pNA) substrate or fluorometric Amino-Methyl-Coumarin (AMC) substrate, specific for each enzyme was used as described previously (PCT Patent Application No. WO 00/09543) with some modifications. All enzymes were purchased from Sigma or EMDbiosciences while the substrates were from Bachem.\nEach pNA assay included a 2 h enzyme-inhibitor pre-incubation at room temperature followed by addition of substrate and hydrolysis to ˜15% conversion as measured on a Spectramax Pro microplate reader. The cathepsin B assay was initiated by adding substrate to a 10 min enzyme-inhibitor pre-incubation at room temperature, and the assay plate measured immediately using the Cytofluor Series 4000. Compound concentrations varied from 100 to 0.4 μM depending on their potency.\n50 mM Tris(hydroxymethyl)aminomethane hydrochloride (Tris-HCl) pH 8, 0.5 M Sodium Sulfate (Na2SO4), 50 mM NaCl, 0.1 mM EDTA, 3% DMSO, 0.01% Tween-20 with: […]\nThe percentage of inhibition was calculated using the formula: [1−((UVinh−UVblank)/(UVctl−UVblank))]×100 […]"}}, "data": [{"smiles": "CC(C)(C)OC(=O)N[C@H]1CN(C2CC2)CCC/C=C\\C2C[C@@]2(C(=O)NS(=O)(=O)C2CC2)NC(=O)[C@@H]2C[C@@H](Oc3ccccn3)CN2C1=O", "note": "(some centres unmarked) [Compound 1]", "values": [{"measurement": "EC50", "setting": "[1]", "value": 202, "unit": "nM"}, {"measurement": "IC50", "setting": "[2]", "value": "> 100000", "unit": "nM"}]}]}
